Patent US12281080B2, “Quinoline-based compounds and methods of inhibiting CDK8/19” (University of South Carolina, priority 2018, dated 2025)

Assays:
RIOK2 = RIOK2 (Homo sapiens (Human), UniProt Q9BVS4); assay: KINOMEscan scanMAX; assay type: binding; conditions: 2000 nM; read-out: Percent Control
PKMYT1 = PKMYT1 (Homo sapiens (Human), UniProt Q99640); assay: KINOMEscan scanMAX; assay type: binding; conditions: 2000 nM; read-out: Percent Control
ACVR2B = ACVR2B (Homo sapiens (Human), UniProt Q13705); assay: KINOMEscan scanMAX; assay type: binding; conditions: 2000 nM; read-out: Percent Control
CDK8/19 = assay: Wash-off assay, MYC and JUN expression in 293 cells (QPCR); assay type: cell-based, human; conditions: 1 μM for 2 hours, then wash-off; MYC and JUN
Experimental: RNA was extracted at different time points after wash-off (up to 24 hrs) and expression of MYC and JUN genes that are CDK8/19-dependent in these cells was measured by QPCR. […] In contrast, after Senexin C treatment and wash-off, the effects of Senexin C were largely retained for at least 6 hrs after wash-off.

FLT3(D835V) = FLT3(D835V) (Homo sapiens (Human), UniProt P36888, D835V); assay: KINOMEscan scanMAX; assay type: binding; conditions: 2000 nM; read-out: Percent Control
ERK4 (MAPK4) = ERK4 (MAPK4) (Homo sapiens (Human), UniProt P31152); assay: KINOMEscan scanMAX; assay type: binding; conditions: 2000 nM; read-out: Percent Control
[1] = biological target: EGFR(L747-S752del, P753S) (Homo sapiens (Human), UniProt P00533, DEL747-752/P753S); assay: KINOMEscan scanMAX; assay type: binding; conditions: 2000 nM; read-out: Percent Control
ABL1-phosphorylated = ABL1-phosphorylated (Homo sapiens (Human), UniProt P00519); assay: KINOMEscan scanMAX; assay type: binding; conditions: 2000 nM; read-out: Percent Control
PIK3C2G = PIK3C2G (Homo sapiens (Human), UniProt O75747); assay: KINOMEscan scanMAX; assay type: binding; conditions: 2000 nM; read-out: Percent Control
PIK3CA(I800L) = PIK3CA(I800L) (Homo sapiens (Human), UniProt P42336, I800L); assay: KINOMEscan scanMAX; assay type: binding; conditions: 2000 nM; read-out: Percent Control
NEK4 = NEK4 (Homo sapiens (Human), UniProt P51957); assay: KINOMEscan scanMAX; assay type: binding; conditions: 2000 nM; read-out: Percent Control
GRK7 = GRK7 (Homo sapiens (Human), UniProt Q8WTQ7); assay: KINOMEscan scanMAX; assay type: binding; conditions: 2000 nM; read-out: Percent Control
PIK3CA(E542K) = PIK3CA(E542K) (Homo sapiens (Human), UniProt P42336, E542K); assay: KINOMEscan scanMAX; assay type: binding; conditions: 2000 nM; read-out: Percent Control
MEK5 (MAP2K5) = MEK5 (MAP2K5) (Homo sapiens (Human), UniProt Q13163); assay: KINOMEscan scanMAX; assay type: binding; conditions: 2000 nM; read-out: Percent Control
SNRK = SNRK (Homo sapiens (Human), UniProt Q9NRH2); assay: KINOMEscan scanMAX; assay type: binding; conditions: 2000 nM; read-out: Percent Control
OSR1 (OXSR1) = OSR1 (OXSR1) (Homo sapiens (Human), UniProt O95747); assay: KINOMEscan scanMAX; assay type: binding; conditions: 2000 nM; read-out: Percent Control
HL60-Luc cells = assay: HL60-Luc proliferation assay (BLI); assay type: cell-based; conditions: HL-60-Luc, 168 h; 7 days
Experimental: The anti-leukemic activity was also evaluated with a HL60 assay. The HL60 assay was performed by a similar procedure as MV4-11 assay. A derivative of the HL-60 leukemia cell line was generated to express Luciferase and ZsGreen by lentiviral infection with pHIV-Luc-ZsGreen, to enable leukemia growth analysis by bioluminescence imaging (BLI). The initial Luciferase-ZsGreen transduced cell population was sorted for ZsGreen positivity with fluorescence activated cell sorting and individual clones were tested for luciferase expression. […] The HL-60 assay was performed in 96-well plates by treating the HL60-Luc cells with testing compounds at different concentrations for 7 days, followed by BLI to quantify the effects of test articles on cell proliferation.

HUNK = HUNK (Homo sapiens (Human), UniProt P57058); assay: KINOMEscan scanMAX; assay type: binding; conditions: 2000 nM; read-out: Percent Control
EGFR(G719S) = EGFR(G719S) (Homo sapiens (Human), UniProt P00533, G719S); assay: KINOMEscan scanMAX; assay type: binding; conditions: 2000 nM; read-out: Percent Control
[2] = biological target: ABL1(F317I)-nonphosphorylated (Homo sapiens (Human), UniProt P00519, F317I); assay: KINOMEscan scanMAX; assay type: binding; conditions: 2000 nM; read-out: Percent Control
PIK3CB = PIK3CB (Homo sapiens (Human), UniProt P42338); assay: KINOMEscan scanMAX; assay type: binding; conditions: 2000 nM; read-out: Percent Control
RIPK2 = RIPK2 (Homo sapiens (Human), UniProt O43353); assay: KINOMEscan scanMAX; assay type: binding; conditions: 2000 nM; read-out: Percent Control
FYN = FYN (Homo sapiens (Human), UniProt P06241); assay: KINOMEscan scanMAX; assay type: binding; conditions: 2000 nM; read-out: Percent Control
p38-alpha (MAPK14) = p38-alpha (MAPK14) (Homo sapiens (Human), UniProt Q16539); assay: KINOMEscan scanMAX; assay type: binding; conditions: 2000 nM; read-out: Percent Control
ARK5 (NUAK1) = ARK5 (NUAK1) (Homo sapiens (Human), UniProt O60285); assay: KINOMEscan scanMAX; assay type: binding; conditions: 2000 nM; read-out: Percent Control
CDK2 = CDK2 (Homo sapiens (Human), UniProt P24941); assay: KINOMEscan scanMAX; assay type: binding; conditions: 2000 nM; read-out: Percent Control
CLK4 = CLK4 (Homo sapiens (Human), UniProt Q9HAZ1); assay: KINOMEscan scanMAX; assay type: binding; conditions: 2000 nM; read-out: Percent Control
GRK2 (ADRBK1) = GRK2 (ADRBK1) (Homo sapiens (Human), UniProt P25098); assay: KINOMEscan scanMAX; assay type: binding; conditions: 2000 nM; read-out: Percent Control
ASK2 (MAP3K6) = ASK2 (MAP3K6) (Homo sapiens (Human), UniProt O95382); assay: KINOMEscan scanMAX; assay type: binding; conditions: 2000 nM; read-out: Percent Control
MAPKAPK5 = MAPKAPK5 (Homo sapiens (Human), UniProt Q8IW41); assay: KINOMEscan scanMAX; assay type: binding; conditions: 2000 nM; read-out: Percent Control
HCK = HCK (Homo sapiens (Human), UniProt P08631); assay: KINOMEscan scanMAX; assay type: binding; conditions: 2000 nM; read-out: Percent Control
AURKC = AURKC (Homo sapiens (Human), UniProt Q9UQB9); assay: KINOMEscan scanMAX; assay type: binding; conditions: 2000 nM; read-out: Percent Control
CDK8 = CDK8 (Homo sapiens (Human), UniProt P49336); assay: DiscoverX Kd assay
NIK (MAP3K14) = NIK (MAP3K14) (Homo sapiens (Human), UniProt Q99558); assay: KINOMEscan scanMAX; assay type: binding; conditions: 2000 nM; read-out: Percent Control

Sequence of CDK8 (P49336 whole entry): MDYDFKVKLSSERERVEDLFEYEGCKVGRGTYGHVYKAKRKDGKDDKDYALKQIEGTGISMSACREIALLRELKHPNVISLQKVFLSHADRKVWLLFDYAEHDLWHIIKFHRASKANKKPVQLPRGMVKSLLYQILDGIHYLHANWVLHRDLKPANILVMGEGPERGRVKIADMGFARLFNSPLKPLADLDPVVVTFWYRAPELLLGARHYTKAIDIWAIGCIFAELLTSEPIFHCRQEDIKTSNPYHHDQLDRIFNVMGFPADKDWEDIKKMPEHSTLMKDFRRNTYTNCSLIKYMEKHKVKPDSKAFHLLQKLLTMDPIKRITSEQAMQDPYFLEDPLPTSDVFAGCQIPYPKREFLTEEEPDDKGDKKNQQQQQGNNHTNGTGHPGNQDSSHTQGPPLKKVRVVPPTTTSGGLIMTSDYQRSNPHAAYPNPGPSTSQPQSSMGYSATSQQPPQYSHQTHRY
Sequence of HUNK (P57058 whole entry): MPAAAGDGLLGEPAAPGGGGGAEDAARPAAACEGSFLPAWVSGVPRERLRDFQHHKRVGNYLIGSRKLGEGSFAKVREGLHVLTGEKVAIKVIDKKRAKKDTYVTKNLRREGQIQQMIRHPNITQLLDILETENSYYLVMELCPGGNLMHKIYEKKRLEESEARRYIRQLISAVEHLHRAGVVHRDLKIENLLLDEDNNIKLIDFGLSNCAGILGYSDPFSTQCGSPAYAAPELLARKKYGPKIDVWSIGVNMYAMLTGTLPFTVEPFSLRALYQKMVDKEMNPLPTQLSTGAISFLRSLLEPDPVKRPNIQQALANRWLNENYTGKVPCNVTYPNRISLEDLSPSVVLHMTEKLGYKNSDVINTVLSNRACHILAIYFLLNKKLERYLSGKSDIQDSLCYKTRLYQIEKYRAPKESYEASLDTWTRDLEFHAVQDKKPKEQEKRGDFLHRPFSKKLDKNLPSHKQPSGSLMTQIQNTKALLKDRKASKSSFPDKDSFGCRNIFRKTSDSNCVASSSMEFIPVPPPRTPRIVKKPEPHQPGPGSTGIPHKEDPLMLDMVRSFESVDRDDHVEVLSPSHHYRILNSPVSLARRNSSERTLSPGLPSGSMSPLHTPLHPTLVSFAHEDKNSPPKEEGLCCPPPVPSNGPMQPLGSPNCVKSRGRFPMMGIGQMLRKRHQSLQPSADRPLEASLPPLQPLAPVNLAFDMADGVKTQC
Sequence of RIOK2 (Q9BVS4 whole entry): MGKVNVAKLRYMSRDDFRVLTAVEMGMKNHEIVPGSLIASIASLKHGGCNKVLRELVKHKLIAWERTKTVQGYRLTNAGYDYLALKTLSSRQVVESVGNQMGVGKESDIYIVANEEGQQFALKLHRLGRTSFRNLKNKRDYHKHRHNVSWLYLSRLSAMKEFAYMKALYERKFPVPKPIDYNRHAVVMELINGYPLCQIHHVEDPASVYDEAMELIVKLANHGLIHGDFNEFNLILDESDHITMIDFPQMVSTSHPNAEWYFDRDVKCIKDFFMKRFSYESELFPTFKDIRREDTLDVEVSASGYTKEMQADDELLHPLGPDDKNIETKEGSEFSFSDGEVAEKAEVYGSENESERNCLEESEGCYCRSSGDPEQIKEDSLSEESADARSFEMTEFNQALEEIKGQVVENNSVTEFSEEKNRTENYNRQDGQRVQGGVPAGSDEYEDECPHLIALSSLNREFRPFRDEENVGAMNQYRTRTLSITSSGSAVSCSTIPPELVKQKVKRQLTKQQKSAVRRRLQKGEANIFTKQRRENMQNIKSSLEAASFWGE
Sequence of GRK2 (ADRBK1) (P25098 whole entry): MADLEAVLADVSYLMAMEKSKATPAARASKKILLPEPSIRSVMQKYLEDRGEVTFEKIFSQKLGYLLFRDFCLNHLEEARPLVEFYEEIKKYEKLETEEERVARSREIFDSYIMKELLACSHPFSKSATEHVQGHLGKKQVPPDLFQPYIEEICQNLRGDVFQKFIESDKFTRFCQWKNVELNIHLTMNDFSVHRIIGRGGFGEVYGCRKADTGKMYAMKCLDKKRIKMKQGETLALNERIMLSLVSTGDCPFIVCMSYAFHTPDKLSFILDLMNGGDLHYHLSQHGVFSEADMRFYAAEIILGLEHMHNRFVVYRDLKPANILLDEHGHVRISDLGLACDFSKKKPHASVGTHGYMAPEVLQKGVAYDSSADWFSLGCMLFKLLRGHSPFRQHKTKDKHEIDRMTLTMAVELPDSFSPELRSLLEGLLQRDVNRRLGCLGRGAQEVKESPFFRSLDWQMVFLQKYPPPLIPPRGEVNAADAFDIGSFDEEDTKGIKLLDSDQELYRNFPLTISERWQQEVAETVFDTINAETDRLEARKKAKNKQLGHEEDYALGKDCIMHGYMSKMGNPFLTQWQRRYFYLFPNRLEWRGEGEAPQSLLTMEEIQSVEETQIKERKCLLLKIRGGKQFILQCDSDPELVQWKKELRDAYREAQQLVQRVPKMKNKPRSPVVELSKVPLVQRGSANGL
Sequence of HCK (P08631 whole entry): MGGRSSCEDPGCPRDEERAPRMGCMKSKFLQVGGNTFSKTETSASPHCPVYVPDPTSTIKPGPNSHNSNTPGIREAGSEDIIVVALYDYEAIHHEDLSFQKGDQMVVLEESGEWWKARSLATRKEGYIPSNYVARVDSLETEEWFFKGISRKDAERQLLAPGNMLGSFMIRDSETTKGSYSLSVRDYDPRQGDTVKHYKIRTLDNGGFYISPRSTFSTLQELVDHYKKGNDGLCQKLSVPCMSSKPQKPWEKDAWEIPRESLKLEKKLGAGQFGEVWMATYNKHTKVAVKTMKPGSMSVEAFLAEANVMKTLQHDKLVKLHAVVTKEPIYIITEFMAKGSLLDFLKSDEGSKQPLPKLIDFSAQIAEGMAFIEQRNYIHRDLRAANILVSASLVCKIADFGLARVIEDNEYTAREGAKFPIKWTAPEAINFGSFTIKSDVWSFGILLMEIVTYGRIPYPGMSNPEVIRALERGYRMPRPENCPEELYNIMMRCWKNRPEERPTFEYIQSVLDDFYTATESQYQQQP
Sequence of SNRK (Q9NRH2 whole entry): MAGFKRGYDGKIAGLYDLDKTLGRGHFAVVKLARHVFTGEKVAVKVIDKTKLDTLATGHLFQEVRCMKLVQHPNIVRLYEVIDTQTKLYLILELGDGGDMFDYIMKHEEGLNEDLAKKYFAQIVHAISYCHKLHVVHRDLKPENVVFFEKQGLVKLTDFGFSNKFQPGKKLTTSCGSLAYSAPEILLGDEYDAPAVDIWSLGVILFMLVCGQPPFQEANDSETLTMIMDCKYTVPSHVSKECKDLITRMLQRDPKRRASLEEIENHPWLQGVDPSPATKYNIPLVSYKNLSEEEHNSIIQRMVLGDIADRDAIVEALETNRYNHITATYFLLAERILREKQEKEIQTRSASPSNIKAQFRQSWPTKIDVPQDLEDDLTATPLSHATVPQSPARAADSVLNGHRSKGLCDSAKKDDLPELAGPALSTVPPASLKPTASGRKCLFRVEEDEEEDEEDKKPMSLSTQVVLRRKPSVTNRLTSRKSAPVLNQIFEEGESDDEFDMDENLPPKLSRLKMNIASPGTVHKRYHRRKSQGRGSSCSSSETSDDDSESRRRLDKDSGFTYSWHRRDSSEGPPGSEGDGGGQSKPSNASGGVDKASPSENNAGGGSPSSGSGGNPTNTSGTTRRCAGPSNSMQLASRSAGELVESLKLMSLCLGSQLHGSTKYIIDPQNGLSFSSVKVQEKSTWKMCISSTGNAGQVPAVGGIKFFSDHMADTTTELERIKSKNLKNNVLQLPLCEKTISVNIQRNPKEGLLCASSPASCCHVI
Sequence of ASK2 (MAP3K6) (O95382 whole entry): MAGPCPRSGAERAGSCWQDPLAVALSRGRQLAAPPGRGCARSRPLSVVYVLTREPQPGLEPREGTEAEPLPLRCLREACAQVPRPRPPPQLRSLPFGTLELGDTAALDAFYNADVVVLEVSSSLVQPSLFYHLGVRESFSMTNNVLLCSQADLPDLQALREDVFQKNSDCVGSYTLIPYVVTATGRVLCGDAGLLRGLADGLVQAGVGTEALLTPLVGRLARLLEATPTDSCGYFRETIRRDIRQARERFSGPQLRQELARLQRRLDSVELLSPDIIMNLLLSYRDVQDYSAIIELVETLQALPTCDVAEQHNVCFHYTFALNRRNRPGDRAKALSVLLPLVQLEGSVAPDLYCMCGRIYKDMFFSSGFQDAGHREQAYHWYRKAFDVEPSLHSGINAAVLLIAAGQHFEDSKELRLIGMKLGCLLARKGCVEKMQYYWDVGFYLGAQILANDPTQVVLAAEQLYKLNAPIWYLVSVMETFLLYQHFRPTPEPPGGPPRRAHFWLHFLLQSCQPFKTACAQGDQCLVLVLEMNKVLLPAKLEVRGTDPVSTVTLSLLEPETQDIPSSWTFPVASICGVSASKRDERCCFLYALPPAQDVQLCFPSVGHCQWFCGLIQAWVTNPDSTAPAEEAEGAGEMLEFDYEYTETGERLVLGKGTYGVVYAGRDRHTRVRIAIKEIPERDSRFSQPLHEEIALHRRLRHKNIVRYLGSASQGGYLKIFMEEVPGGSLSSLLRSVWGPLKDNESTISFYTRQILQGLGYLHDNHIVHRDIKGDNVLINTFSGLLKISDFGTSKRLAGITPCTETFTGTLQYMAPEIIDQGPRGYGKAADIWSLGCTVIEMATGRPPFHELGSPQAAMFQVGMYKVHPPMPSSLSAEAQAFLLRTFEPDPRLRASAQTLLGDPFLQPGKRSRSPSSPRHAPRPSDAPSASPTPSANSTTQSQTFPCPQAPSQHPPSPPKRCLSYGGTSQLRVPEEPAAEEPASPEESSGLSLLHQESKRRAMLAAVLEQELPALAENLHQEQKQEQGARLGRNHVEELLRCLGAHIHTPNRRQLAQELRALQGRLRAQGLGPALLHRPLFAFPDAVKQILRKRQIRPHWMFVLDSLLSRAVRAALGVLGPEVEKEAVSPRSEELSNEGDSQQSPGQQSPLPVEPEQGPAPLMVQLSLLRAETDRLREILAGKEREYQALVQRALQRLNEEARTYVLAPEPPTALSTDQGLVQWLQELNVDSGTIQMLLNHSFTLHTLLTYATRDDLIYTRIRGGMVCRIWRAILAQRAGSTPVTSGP

CN1CCN(C(=O)c2ccc3cc(CCNc4ccnc5ccc(C#N)cc45)ccc3c2)CC1 [compound 6148, 4-((2-(6-(4-methylpiperazine-1-carbonyl)naphthalen-2-yl)ethyl)amino)quinoline-6-carbonitrile]
remaining binding at 2 µM (RIOK2): 64% | remaining binding at 2 µM (PKMYT1): 100% | remaining binding at 2 µM (ACVR2B): 90% | Time effects largely retained after wash-off (CDK8/19): at least 6 hrs | remaining binding at 2 µM (FLT3(D835V)): 67% | remaining binding at 2 µM (ERK4 (MAPK4)): 87% | remaining binding at 2 µM [1]: 98% | remaining binding at 2 µM (ABL1-phosphorylated): 67% | remaining binding at 2 µM (PIK3C2G): 57% | remaining binding at 2 µM (PIK3CA(I800L)): 72% | remaining binding at 2 µM (NEK4): 60% | remaining binding at 2 µM (GRK7): 87% | remaining binding at 2 µM (PIK3CA(E542K)): 55% | remaining binding at 2 µM (MEK5 (MAP2K5)): 63% | remaining binding at 2 µM (SNRK): 75% | remaining binding at 2 µM (OSR1 (OXSR1)): 51% | IC50 (HL60-Luc cells): 114 nM | remaining binding at 2 µM (HUNK): 74% | remaining binding at 2 µM (EGFR(G719S)): 100% | remaining binding at 2 µM [2]: 88% | remaining binding at 2 µM (PIK3CB): 64% | remaining binding at 2 µM (RIPK2): 100% | remaining binding at 2 µM (FYN): 89% | remaining binding at 2 µM (p38-alpha (MAPK14)): 84% | remaining binding at 2 µM (ARK5 (NUAK1)): 89% | remaining binding at 2 µM (CDK2): 95% | remaining binding at 2 µM (CLK4): 69% | remaining binding at 2 µM (GRK2 (ADRBK1)): 63% | remaining binding at 2 µM (ASK2 (MAP3K6)): 79% | remaining binding at 2 µM (MAPKAPK5): 62% | remaining binding at 2 µM (HCK): 96% | remaining binding at 2 µM (AURKC): 100% | Kd (CDK8): 55 nM | remaining binding at 2 µM (NIK (MAP3K14)): 88%
